According to paper PMC8102066 (eLife, 2021):
Where “and” joins values, the source holds several entries; their conditions need not be identical. Equal values may be shown once.

Columns and labels:
[1] = biological target: T1, mGluR2-3xTM4_W (Rattus norvegicus, UniProt P31421, A677W/A681W/A685W); test: Calcium imaging in HEK 293 T cells; type: cell-based; settings: normalized to 1 mM glutamate, replicates
T1 construct: expressed in transfected cells; host or cells: HEK 293 T
Procedure: (§1) We tested this by introducing bulky, hydrophobic tryptophan residues into outward facing residues of TM4 to disrupt inter-subunit interaction.
(§2) Approximately 30 ROIs were analyzed per movie.

[2] = biological target: T2, mGluR3-3xTM4_W (Rattus norvegicus, UniProt P31422, F690W/G694W/S686W); test: Calcium imaging in HEK 293 T cells; type: cell-based; settings: for Calcium response amplitude: normalized to saturating glutamate
T2 construct: expressed in transfected cells; host or cells: HEK 293 T
T2 sequence (P31422 23-879 S686W/F690W/G694W): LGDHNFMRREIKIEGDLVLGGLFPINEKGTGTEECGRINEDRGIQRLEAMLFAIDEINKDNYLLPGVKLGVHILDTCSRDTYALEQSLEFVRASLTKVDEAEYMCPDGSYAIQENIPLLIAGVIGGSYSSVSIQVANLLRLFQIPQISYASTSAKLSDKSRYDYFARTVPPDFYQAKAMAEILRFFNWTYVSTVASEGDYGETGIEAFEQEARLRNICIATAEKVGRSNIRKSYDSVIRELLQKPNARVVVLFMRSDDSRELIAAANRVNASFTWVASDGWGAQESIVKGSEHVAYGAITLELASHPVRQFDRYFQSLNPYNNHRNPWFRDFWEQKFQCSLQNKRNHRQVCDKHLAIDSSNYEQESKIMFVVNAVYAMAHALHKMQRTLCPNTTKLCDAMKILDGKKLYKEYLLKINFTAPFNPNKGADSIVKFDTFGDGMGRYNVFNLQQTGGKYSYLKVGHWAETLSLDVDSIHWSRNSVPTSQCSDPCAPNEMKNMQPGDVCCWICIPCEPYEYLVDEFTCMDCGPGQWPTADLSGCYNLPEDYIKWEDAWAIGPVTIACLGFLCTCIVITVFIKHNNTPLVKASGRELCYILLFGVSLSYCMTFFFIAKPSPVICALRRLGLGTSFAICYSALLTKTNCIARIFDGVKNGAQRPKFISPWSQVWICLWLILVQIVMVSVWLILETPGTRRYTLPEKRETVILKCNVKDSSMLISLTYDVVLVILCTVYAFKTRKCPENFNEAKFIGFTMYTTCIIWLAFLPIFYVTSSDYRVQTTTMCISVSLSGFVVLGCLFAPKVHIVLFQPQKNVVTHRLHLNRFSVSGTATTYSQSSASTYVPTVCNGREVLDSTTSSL
Procedure: as §1, §2

[3] = biological target: mGluR3-C127A-3xTM4 (Rattus norvegicus, UniProt P31422, C127A/F690A/G694A/S686A); test: SiMPull subunit counting in the presence of ligands; settings: SNAP-mGluR3-C127A-3xTM4 in presence of the ligand; single replicates per experiment day
[4] = biological target: mGluR3-I788A (Rattus norvegicus, UniProt P31422, I788A); test: Inter-TMD FRET sensor (HaloTag in ICL2), live cells; type: cell-based; parameters: expressed in transfected cells; host or cells: HEK 293 T; FRET response amplitude: scale not given here; settings: for FRET response amplitude: inter-TMD FRET
Excerpt: (§3) Next, we asked how perturbing the TM6 interface would alter the conformational dynamics detected by our TMD FRET sensors.

[5] = biological target: mGluR2 (Rattus norvegicus, UniProt P31421, INS660ASEIGTGFPFDPHYVEVLGERMHYVDVGPRDGTPVLFLHGNPTSSYVWRNIIPHVAPTHRCIAPDLIGMGKSDKPDLGYFFDDHVRFMDAFIEALGLEEVVLVIHDWGSALGFHWAKRNPERVKGIAFMEFIRPIPTWDEWPEFARETFQAFRTTDVGRKLIIDQNVFIEGTLPMGVVRPLTEVEMDHYREPFLNPVDREPLWRFPNELPIAGEPANIVALVEEYMDWLHQSPVPKLLFWGTPGVLIPPAEAARLAKSLPNCKAVDIGPGLNLLQEDNPDLIGSEIARWLSTLEISGLE); test: as above; settings: mGluR2, inter-TMD FRET
[6] = biological target: mGluR3 (Rattus norvegicus, UniProt P31422, INS669ASEIGTGFPFDPHYVEVLGERMHYVDVGPRDGTPVLFLHGNPTSSYVWRNIIPHVAPTHRCIAPDLIGMGKSDKPDLGYFFDDHVRFMDAFIEALGLEEVVLVIHDWGSALGFHWAKRNPERVKGIAFMEFIRPIPTWDEWPEFARETFQAFRTTDVGRKLIIDQNVFIEGTLPMGVVRPLTEVEMDHYREPFLNPVDREPLWRFPNELPIAGEPANIVALVEEYMDWLHQSPVPKLLFWGTPGVLIPPAEAARLAKSLPNCKAVDIGPGLNLLQEDNPDLIGSEIARWLSTLEISGLE); test: as above; settings: for FRET response amplitude: mGluR3, inter-TMD FRET
mGluR3, sequence (P31422 with tags, fused parts or gaps with the stated changes): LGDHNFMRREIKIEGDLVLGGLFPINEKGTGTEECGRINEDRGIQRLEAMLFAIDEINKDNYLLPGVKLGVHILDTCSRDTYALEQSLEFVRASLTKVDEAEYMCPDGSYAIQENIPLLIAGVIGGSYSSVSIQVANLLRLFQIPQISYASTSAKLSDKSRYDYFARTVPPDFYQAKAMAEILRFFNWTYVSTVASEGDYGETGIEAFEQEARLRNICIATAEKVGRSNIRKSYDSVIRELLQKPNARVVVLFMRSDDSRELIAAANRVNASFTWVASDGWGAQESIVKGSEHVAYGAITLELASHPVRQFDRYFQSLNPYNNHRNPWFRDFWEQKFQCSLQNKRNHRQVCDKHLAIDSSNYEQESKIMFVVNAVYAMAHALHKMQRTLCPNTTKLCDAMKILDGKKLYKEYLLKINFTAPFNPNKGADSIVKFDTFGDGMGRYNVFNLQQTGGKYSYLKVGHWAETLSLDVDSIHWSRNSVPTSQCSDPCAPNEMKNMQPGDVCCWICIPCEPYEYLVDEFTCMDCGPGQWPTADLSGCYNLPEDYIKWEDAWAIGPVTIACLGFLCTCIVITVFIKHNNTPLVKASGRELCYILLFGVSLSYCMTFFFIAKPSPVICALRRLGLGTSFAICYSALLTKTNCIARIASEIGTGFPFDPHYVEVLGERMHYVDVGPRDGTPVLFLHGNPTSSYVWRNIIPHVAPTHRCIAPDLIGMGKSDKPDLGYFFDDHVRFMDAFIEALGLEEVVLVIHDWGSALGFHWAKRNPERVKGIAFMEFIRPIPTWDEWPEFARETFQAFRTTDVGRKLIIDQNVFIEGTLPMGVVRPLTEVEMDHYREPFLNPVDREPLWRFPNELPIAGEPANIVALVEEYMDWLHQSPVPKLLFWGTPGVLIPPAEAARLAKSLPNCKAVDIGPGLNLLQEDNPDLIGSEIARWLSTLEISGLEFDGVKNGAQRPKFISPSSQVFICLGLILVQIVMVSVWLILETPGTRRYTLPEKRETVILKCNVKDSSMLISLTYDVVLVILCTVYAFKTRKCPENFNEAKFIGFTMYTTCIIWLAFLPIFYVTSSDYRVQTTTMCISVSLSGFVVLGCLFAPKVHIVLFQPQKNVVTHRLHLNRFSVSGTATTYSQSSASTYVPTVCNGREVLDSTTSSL

[7] = biological target: T3, mGluR2-I779A (Rattus norvegicus, UniProt P31421, I779A); test: as above; type: cell-based; settings: for FRET response amplitude: mGluR2-I779A, inter-TMD FRET
T3 construct: we performed calcium imaging experiments with mutations in the full-length mGluR2 background; expressed in transfected cells; host or cells: HEK 293 T
T3 sequence (P31421 19-872 I779A): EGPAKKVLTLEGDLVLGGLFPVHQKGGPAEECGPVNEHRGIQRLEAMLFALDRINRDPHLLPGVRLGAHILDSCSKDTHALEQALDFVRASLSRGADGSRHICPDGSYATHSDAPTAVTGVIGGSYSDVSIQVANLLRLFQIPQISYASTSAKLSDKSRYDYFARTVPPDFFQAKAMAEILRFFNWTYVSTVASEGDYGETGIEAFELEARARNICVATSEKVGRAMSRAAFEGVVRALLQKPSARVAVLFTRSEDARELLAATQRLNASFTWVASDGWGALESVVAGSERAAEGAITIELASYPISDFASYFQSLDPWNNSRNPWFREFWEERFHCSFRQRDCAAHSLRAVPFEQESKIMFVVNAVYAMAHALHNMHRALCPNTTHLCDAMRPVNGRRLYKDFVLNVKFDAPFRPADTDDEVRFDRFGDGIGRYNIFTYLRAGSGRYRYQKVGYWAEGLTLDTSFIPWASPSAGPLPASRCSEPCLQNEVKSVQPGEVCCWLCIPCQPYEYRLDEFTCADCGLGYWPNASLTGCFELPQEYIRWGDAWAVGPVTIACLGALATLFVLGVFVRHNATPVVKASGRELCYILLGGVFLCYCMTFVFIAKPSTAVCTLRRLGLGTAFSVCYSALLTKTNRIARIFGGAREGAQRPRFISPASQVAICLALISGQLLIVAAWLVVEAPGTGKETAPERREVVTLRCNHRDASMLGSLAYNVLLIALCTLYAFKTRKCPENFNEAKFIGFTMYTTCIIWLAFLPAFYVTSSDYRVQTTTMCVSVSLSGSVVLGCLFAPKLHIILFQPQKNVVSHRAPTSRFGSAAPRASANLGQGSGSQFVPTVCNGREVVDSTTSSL
Excerpt: as §3

[8] = biological target: T4, mGluR2-3xTM4 (Rattus norvegicus, UniProt P31421, A677S/A681F/A685G/INS660ASEIGTGFPFDPHYVEVLGERMHYVDVGPRDGTPVLFLHGNPTSSYVWRNIIPHVAPTHRCIAPDLIGMGKSDKPDLGYFFDDHVRFMDAFIEALGLEEVVLVIHDWGSALGFHWAKRNPERVKGIAFMEFIRPIPTWDEWPEFARETFQAFRTTDVGRKLIIDQNVFIEGTLPMGVVRPLTEVEMDHYREPFLNPVDREPLWRFPNELPIAGEPANIVALVEEYMDWLHQSPVPKLLFWGTPGVLIPPAEAARLAKSLPNCKAVDIGPGLNLLQEDNPDLIGSEIARWLSTLEISGLE); test: as above; type: cell-based
T4 construct: expressed in transfected cells; host or cells: HEK 293T
T4 sequence (P31421 with tags, fused parts or gaps with the stated changes): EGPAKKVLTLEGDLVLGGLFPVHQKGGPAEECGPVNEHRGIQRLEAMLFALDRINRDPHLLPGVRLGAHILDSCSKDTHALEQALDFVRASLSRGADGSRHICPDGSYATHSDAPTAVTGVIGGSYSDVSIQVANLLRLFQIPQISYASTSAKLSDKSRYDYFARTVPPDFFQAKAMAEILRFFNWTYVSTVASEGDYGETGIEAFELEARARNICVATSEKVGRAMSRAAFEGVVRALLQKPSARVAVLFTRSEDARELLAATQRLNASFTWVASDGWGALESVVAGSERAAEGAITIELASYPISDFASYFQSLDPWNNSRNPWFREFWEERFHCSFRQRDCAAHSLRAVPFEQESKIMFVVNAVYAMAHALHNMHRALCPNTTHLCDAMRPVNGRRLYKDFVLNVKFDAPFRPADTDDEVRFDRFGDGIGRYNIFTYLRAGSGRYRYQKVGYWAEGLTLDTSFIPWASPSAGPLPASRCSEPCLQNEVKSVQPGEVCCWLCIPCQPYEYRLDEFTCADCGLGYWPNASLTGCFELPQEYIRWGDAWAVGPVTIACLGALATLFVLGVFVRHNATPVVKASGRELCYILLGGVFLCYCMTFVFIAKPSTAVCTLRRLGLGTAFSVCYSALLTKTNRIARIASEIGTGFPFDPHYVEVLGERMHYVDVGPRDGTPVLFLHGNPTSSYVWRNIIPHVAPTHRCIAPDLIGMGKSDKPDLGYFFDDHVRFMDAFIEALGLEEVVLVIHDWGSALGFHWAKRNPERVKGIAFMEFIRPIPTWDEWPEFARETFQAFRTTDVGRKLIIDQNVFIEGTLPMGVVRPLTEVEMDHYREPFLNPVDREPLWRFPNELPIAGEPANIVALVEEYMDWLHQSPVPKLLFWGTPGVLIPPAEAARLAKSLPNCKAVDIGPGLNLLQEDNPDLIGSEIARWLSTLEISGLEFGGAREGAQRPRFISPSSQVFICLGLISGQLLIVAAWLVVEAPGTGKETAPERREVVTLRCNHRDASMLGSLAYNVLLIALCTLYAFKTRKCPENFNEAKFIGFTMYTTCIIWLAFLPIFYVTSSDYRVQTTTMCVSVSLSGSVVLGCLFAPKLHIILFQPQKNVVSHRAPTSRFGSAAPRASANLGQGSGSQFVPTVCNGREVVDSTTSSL

[9] = read-out: Glutamate EC50, inter-TMD FRET, normalized to saturating (1 mM) glutamate, unit inferred

T1 sequence (P31421 19-872 A677W/A681W/A685W): as the sequence (P31421 19-872 I779A) above, with A659W, A663W, A667W, A761I counted along it

Compound: N[C@@H](CCC(=O)O)C(=O)O [glutamate]
- Calcium response amplitude ([1]; Glutamate 100 nM): 0.00
- Calcium response amplitude ([1]; Glutamate 1 uM): 0.00 and 0.08 and 0.04
- Calcium response amplitude ([1]; Glutamate 10 uM): 0.55 and 0.51
- Calcium response amplitude ([1]; Glutamate 100 uM): 1.00 and 0.99 and 0.76
- Calcium response amplitude ([1]; Glutamate 1 mM): 1.00
- Calcium response amplitude ([2]; Glutamate 10 nM, replicates): 0.00
- Calcium response amplitude ([2]; Glutamate 100 nM, replicates): 0.00
- Calcium response amplitude ([2]; Glutamate 1 uM, replicates): 0.09 and 0.064 and 0.00
- Calcium response amplitude ([2]; Glutamate 10 uM, replicates): 0.20 and 0.28 and 0.12 and 0.22
- Calcium response amplitude ([2]; Glutamate 100 uM, replicates): 0.41 and 0.50
- Calcium response amplitude ([2]; Glutamate 1 mM): 0.86
- Calcium response amplitude ([2]; Glutamate 10 mM): 1.00
- EC50 ([2]; read-out: Glutamate EC50, calcium imaging, normalized to saturating (1 mM) glutamate, unit inferred): 186000 ± 270 nM
- % Dimerization [3]: 75.71% and 66.43% and 55.31% and 68.06% and 59.35% and 70.85%
- FRET response amplitude ([4]; Glutamate 10 nM): 0.00
- FRET response amplitude ([4]; Glutamate 1 uM): 0.60 and 0.66 and 0.55
- FRET response amplitude ([4]; Glutamate 10 uM): 0.97 and 1.00 and 0.86
- FRET response amplitude ([4]; Glutamate 100 uM): 1.00
- FRET response amplitude ([4]; Glutamate 1 mM): 1.00
- EC50 [4, 9]: 660 ± 50 nM
- FRET response amplitude ([5]; Glutamate 10 nM): 0.00
- FRET response amplitude ([5]; Glutamate 100 nM): 0.00
- FRET response amplitude ([5]; Glutamate 100 uM): 0.97 and 0.96 and 0.95 and 0.92 and 1.04 and 0.99 and 1.01
- FRET response amplitude ([5]; Glutamate 1 mM): 1.00
- FRET response amplitude ([6]; Glutamate 1 nM): 0.00
- FRET response amplitude ([6]; Glutamate 1 uM): 0.66 and 0.83 and 0.95 and 0.97 and 0.93 and 0.79 and 0.73
- FRET response amplitude ([6]; Glutamate 10 uM): 0.80 and 0.95 and 0.97 and 1.05 and 0.98 and 0.87
- FRET response amplitude ([6]; Glutamate 100 uM): 0.99 and 0.97 and 0.96 and 1.00
- FRET response amplitude ([6]; Glutamate 1 mM): 1.00
- EC50 [6, 9]: 230 ± 80 nM
- FRET response amplitude ([7]; Glutamate 10 nM): 0.00
- FRET response amplitude ([7]; Glutamate 100 nM): 0.00
- FRET response amplitude ([7]; Glutamate 1 uM): 0.00
- FRET response amplitude ([7]; Glutamate 100 uM): 0.75 and 0.90 and 0.82
- FRET response amplitude ([7]; Glutamate 1 mM): 1.00
- change in glutamate EC50 compared to mGluR2 ([7]; inter-TMD FRET sensor, right shift): two-fold
- FRET response amplitude ([8]; Glutamate 10 nM): 0.00
- FRET response amplitude ([8]; Glutamate 100 nM): 0.0446
- FRET response amplitude ([8]; Glutamate 1 uM): 0.14 and 0.10 and 0.11
- FRET response amplitude ([8]; Glutamate 10 uM): 0.89 and 0.71
- FRET response amplitude ([8]; Glutamate 100 uM): 1.00
- FRET response amplitude ([8]; Glutamate 1 mM): 1.00
